{"source": "EPA's ToxValDB 9.5 (doi:10.2903/j.efsa.2010.1671)", "key": {"[1]": {"tested_on": "Rattus norvegicus", "settings": "for NOAEL: inhalation"}, "[2]": {"tested_on": "Macromiidae", "settings": "acute; duration: 72 hours; biomass"}, "[3]": {"tested_on": "Leuciscus idus", "settings": "acute; duration: 96 hours; mortality"}, "[4]": {"tested_on": "Anas platyrhynchos", "settings": "short-term; oral; feed; mortality"}, "[5]": {"tested_on": "Coturnix japonica", "settings": "reproduction developmental"}, "[6]": {"tested_on": "Colinus virginianus", "settings": "acute, oral, mortality"}, "[7]": {"settings": "chronic, duration: 2 years, no effects"}, "[8]": {"settings": "reproduction developmental, mortality"}, "[9]": {"settings": "subchronic, duration: 90 days, no effects"}}}
{"compound": "P", "note": "[Phosphine]", "values": [{"measurement": "NOAEL", "setting": "[1]; [7]", "value": 1.1, "unit": "mg/kg-day"}, {"measurement": "NOAEL", "setting": "[1]; [8]", "value": 1.9, "unit": "mg/kg-day"}, {"measurement": "NOAEL", "setting": "[1]; [9]", "value": 1.1, "unit": "mg/kg-day"}]}
{"compound": "[PH]=[Zn].[PH]=[Zn].[Zn]", "note": "[Zinc phosphide (Zn3P2)]", "values": [{"measurement": "NOEC", "setting": "[2]", "value": 0.00323, "unit": "mg/L"}, {"measurement": "LD50", "setting": "[1]; acute, oral, mortality", "value": 37, "unit": "mg/kg-day"}, {"measurement": "NOAEL", "setting": "[1]; [7]", "value": 1.1, "unit": "mg/kg-day"}, {"measurement": "NOAEL", "setting": "[1]; [8]", "value": 1.9, "unit": "mg/kg-day"}, {"measurement": "NOAEL", "setting": "[1]; [9]", "value": 1.1, "unit": "mg/kg-day"}, {"measurement": "LOEC", "setting": "[1]; subchronic, duration: 90 days, oral", "value": 3.5, "unit": "mg/kg-day"}, {"measurement": "LC50", "setting": "[3]", "value": "> 21.7", "unit": "µg/mL"}, {"measurement": "LC50", "setting": "[4]", "value": 2880, "unit": "mg/kg"}, {"measurement": "NOEL", "setting": "[5]; F", "value": 0.99, "unit": "mg/kg-day"}, {"measurement": "NOEL", "setting": "[5]; M", "value": 1.2, "unit": "mg/kg-day"}, {"measurement": "LC50", "setting": "[6]; diet", "value": 468, "unit": "mg/kg"}, {"measurement": "LD50", "setting": "[6]", "value": 12.9, "unit": "mg/kg-day"}]}
